“And” between values parts separate entries of the source, which are not always exact repeats. Equal values may be shown once. Inconclusive results and toxic doses are left out. No stated cut-off is given here; in the data, active means T/C of 150% or more; inactive means T/C below 125%.
Tested on: L1210 leukemia ip in BDF1 mice, survival T/C
Assay: NCI In Vivo Anticancer Drug Screen. Data for tumor model L1210 Leukemia (intraperitoneal) in B6D2F1 (BDF1) mice
Conditions: endpoint: mean survival time, higher = longer survival
Outline: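 In this screen, tumor-bearing mice given compound are compared to those given vehicle, and their survival values are reported as a treated-to-control quotient.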

[1] = dose: 100.0 mg/kg/injection, schedule: Q01DX009 (ip), vehicle: saline with Tween-80
[2] = dose: 200.0 mg/kg/injection, schedule: Q01DX009 (ip), vehicle: saline with Tween-80
[3] = dose: 400.0 mg/kg/injection, schedule: Q01DX009 (ip), vehicle: saline with Tween-80
[4] = dose: 100.0 mg/kg/injection, schedule: Q04DX003 (ip), vehicle: saline with Tween-80
[5] = dose: 200.0 mg/kg/injection, schedule: Q04DX003 (ip), vehicle: saline with Tween-80
[6] = dose: 100.0 mg/kg/injection, schedule: Q01DX001 (ip), vehicle: saline
[7] = dose: 200.0 mg/kg/injection, schedule: Q01DX001 (ip), vehicle: saline
[8] = dose: 400.0 mg/kg/injection, schedule: Q01DX001 (ip), vehicle: saline
[9] = dose: 100.0 mg/kg/injection, schedule: Q01DX009 (ip), vehicle: Klucel (hydroxypropylcellulose) (HPC)
[10] = dose: 100.0 mg/kg/injection, schedule: Q04DX003 (ip), vehicle: Klucel (hydroxypropylcellulose) (HPC)
[11] = dose: 200.0 mg/kg/injection, schedule: Q01DX009 (ip), vehicle: Klucel (hydroxypropylcellulose) (HPC)
[12] = dose: 200.0 mg/kg/injection, schedule: Q04DX003 (ip), vehicle: Klucel (hydroxypropylcellulose) (HPC)
[13] = dose: 400.0 mg/kg/injection, schedule: Q01DX009 (ip), vehicle: Klucel (hydroxypropylcellulose) (HPC)
[14] = dose: 400.0 mg/kg/injection, schedule: Q04DX003 (ip), vehicle: Klucel (hydroxypropylcellulose) (HPC)
[15] = dose: 75.0 mg/kg/injection, schedule: Q01DX001 (ip), vehicle: saline
[16] = dose: 150.0 mg/kg/injection, schedule: Q01DX001 (ip), vehicle: saline
[17] = dose: 300.0 mg/kg/injection, schedule: Q01DX001 (ip), vehicle: saline
[18] = dose: 40.0 mg/kg/injection, schedule: Q01DX009 (ip), vehicle: Klucel (hydroxypropylcellulose) (HPC)
[19] = dose: 12.5 mg/kg/injection, schedule: Q01DX009 (ip), vehicle: Klucel (hydroxypropylcellulose) (HPC)
[20] = dose: 25.0 mg/kg/injection, schedule: Q01DX009 (ip), vehicle: Klucel (hydroxypropylcellulose) (HPC)
[21] = dose: 100.0 mg/kg/injection, schedule: Q04DX002 (ip), vehicle: Klucel (hydroxypropylcellulose) (HPC)
[22] = dose: 200.0 mg/kg/injection, schedule: Q04DX002 (ip), vehicle: Klucel (hydroxypropylcellulose) (HPC)
[23] = dose: 400.0 mg/kg/injection, schedule: Q04DX002 (ip), vehicle: Klucel (hydroxypropylcellulose) (HPC)

Measured: T/C

NC(=O)c1[nH]cnc1/N=N/N(CCO)Cc1ccccc1
inactive: dose: 50.0 mg/kg/injection, schedule: Q01DX001 (ip), vehicle: water 98 % of control | dose: 50.0 mg/kg/injection, schedule: Q04DX003 (ip), vehicle: water 105 % of control | dose: 100.0 mg/kg/injection, schedule: Q01DX001 (ip), vehicle: water 96 % of control | [1] 98 % of control | dose: 100.0 mg/kg/injection, schedule: Q04DX003 (ip), vehicle: water 105 % of control | dose: 200.0 mg/kg/injection, schedule: Q01DX001 (ip), vehicle: water 98 % of control | [2] 102 % of control | dose: 200.0 mg/kg/injection, schedule: Q04DX003 (ip), vehicle: water 101 % of control | dose: 400.0 mg/kg/injection, schedule: Q01DX001 (ip), vehicle: water 101 % of control | [3] 95 % of control | dose: 400.0 mg/kg/injection, schedule: Q04DX003 (ip), vehicle: water 97 % of control

NC(=O)NC(=O)/C=C/C(=O)O
inactive: dose: 50.0 mg/kg/injection, schedule: Q01DX009 (ip), vehicle: saline with Tween-80 100 % of control | [1] 94 % of control | [4] 92 % of control | [5] 90 % of control

CC(=O)Nc1ccc2c(c1)C(S)c1ccccc1-2 (stereo unspecified)
inactive: dose: 100.0 mg/kg/injection, schedule: Q01DX001 (ip), vehicle: carboxymethylcellulose (CMC) 112 % of control | dose: 200.0 mg/kg/injection, schedule: Q01DX001 (ip), vehicle: carboxymethylcellulose (CMC) 114 % of control | dose: 400.0 mg/kg/injection, schedule: Q01DX001 (ip), vehicle: carboxymethylcellulose (CMC) 101 % of control

CCCCCCCCCCCCCCCCC1CCc2ccccc21 (stereo unspecified)
inactive: dose: 50.0 mg/kg/injection, schedule: Q01DX001 (ip), vehicle: saline 101 % of control | [6] 101 % of control | [7] 98 % of control | [8] 101 % of control

Cc1ccc(S(=O)(=O)N2CCC(O)(c3ccccc3)CC2)cc1
inactive: [9] 91 % of control | [10] 90 % of control | [11] 90 % of control | [12] 91 % of control | [13] 92 % of control | [14] 89 % of control

Cc1ccc(S(=O)(=O)OCC2CCC(COS(=O)(=O)c3ccc(C)cc3)O2)cc1 (stereo unspecified)
inactive: [10] 103 % of control | [12] 100 % of control

O=S(=O)(O)C(Nc1ccccc1)c1ccccc1 (stereo unspecified)
inactive: [1] 100 % of control | [4] 97 % of control | dose: 150.0 mg/kg/injection, schedule: Q01DX001 (ip), vehicle: water 96 % of control | dose: 162.0 mg/kg/injection, schedule: Q01DX Z (ip), vehicle: carboxymethylcellulose (CMC) 95 % of control | [2] 96 % of control | [5] 101 % of control | dose: 300.0 mg/kg/injection, schedule: Q01DX001 (ip), vehicle: water 100 % of control | dose: 324.0 mg/kg/injection, schedule: Q01DX Z (ip), vehicle: carboxymethylcellulose (CMC) 94 % of control | [3] 101 % of control | dose: 400.0 mg/kg/injection, schedule: Q01DX015 (ip), vehicle: water 119 % of control | dose: 400.0 mg/kg/injection, schedule: Q04DX003 (ip), vehicle: saline with Tween-80 93 % of control | dose: 600.0 mg/kg/injection, schedule: Q01DX001 (ip), vehicle: water 96 % of control | dose: 600.0 mg/kg/injection, schedule: Q01DX015 (ip), vehicle: water 104 % of control | dose: 1200.0 mg/kg/injection, schedule: Q01DX001 (ip), vehicle: water 116 % of control

COc1ccc(Nc2ccc(OC)cc2C(=O)O)cc1
inactive: [15] 102 % of control | dose: 75.0 mg/kg/injection, schedule: Q01DX009 (ip), vehicle: saline 89 % of control | [16] 102 % of control | dose: 150.0 mg/kg/injection, schedule: Q01DX009 (ip), vehicle: saline 104 % of control | [17] 104 % of control | dose: 300.0 mg/kg/injection, schedule: Q01DX009 (ip), vehicle: saline 101 % of control

CC(=O)OC1=C(c2ccccc2)C(=O)c2ccccc21
inactive: [18] 94 % of control | dose: 75.0 mg/kg/injection, schedule: Q01DX001 (ip), vehicle: Klucel (hydroxypropylcellulose) (HPC) 95 % of control | dose: 75.0 mg/kg/injection, schedule: Q01DX009 (ip), vehicle: Klucel (hydroxypropylcellulose) (HPC) 94 % of control | dose: 150.0 mg/kg/injection, schedule: Q01DX001 (ip), vehicle: Klucel (hydroxypropylcellulose) (HPC) 96 % of control | dose: 150.0 mg/kg/injection, schedule: Q01DX009 (ip), vehicle: Klucel (hydroxypropylcellulose) (HPC) 88 % of control

CC1=C(C)C(C)(Cl)C1(C)Cl (stereo unspecified)
inactive: dose: 75.0 mg/kg/injection, schedule: Q01DX001 (ip), vehicle: acetone 108 % of control | dose: 150.0 mg/kg/injection, schedule: Q01DX001 (ip), vehicle: acetone 95 % of control

Cc1ccc(SCCN=C(N)CSS(=O)(=O)O)cc1
inactive: [19] 94 % of control | [20] 107 % of control | [21] 92 % of control | [22] 101 % of control | [23] 92 % of control

Cc1sc([N+](=O)[O-])cc1[N+](=O)[O-]
inactive: dose: 50.0 mg/kg/injection, schedule: Q01DX009 (ip), vehicle: Klucel (hydroxypropylcellulose) (HPC) 103 % of control | [9] 92 % of control | [10] 97 % of control | [12] 96 % of control

COc1ccc2c(c1)-c1c(O)c(OC)cc3c1C(C2)N(C)CC3 (stereo unspecified)
inactive: [15] 94 % of control | [16] 98 % of control | [17] 100 % of control

CC(C)(C)C1CCC(C(N)=O)CC1 (stereo unspecified)
inactive: [21] 103 % of control | [22] 107 % of control | [23] 103 % of control

O=C(Nc1ccc([N+](=O)[O-])cc1Cl)c1ccc(C(=O)Nc2ccc([N+](=O)[O-])cc2Cl)cc1
inactive: [6] 96 % of control | [7] 94 % of control | [8] 91 % of control

CSC(C)(S(C)(=O)=O)S(C)(=O)=O
inactive: dose: 75.0 mg/kg/injection, schedule: Q01DX001 (ip), vehicle: saline with Tween-80 102 % of control | dose: 150.0 mg/kg/injection, schedule: Q01DX001 (ip), vehicle: saline with Tween-80 96 % of control | dose: 300.0 mg/kg/injection, schedule: Q01DX001 (ip), vehicle: saline with Tween-80 98 % of control

Nc1nc(N)nc(SCCOCCSc2nc(N)nc(N)n2)n1
inactive: [1] 103 % of control | [2] 94 % of control | [3] 92 % of control

NC(=O)c1ccc(NCc2cnc3nc(N)nc(N)c3n2)cc1
inactive: dose: 20.0 mg/kg/injection, schedule: Q01DX009 (ip), vehicle: Klucel (hydroxypropylcellulose) (HPC) 106 % of control | [18] 101 % of control | dose: 80.0 mg/kg/injection, schedule: Q01DX009 (ip), vehicle: Klucel (hydroxypropylcellulose) (HPC) 103 % of control

CCCCCCCCCCCCCCCCN(C)/C(=N\NS(=O)(=O)c1cccc([N+](=O)[O-])c1)c1ccc(OC)c(OC)c1
inactive: [10] 93 % of control | [12] 95 % of control | [14] 93 % of control

[Cl][Hg][c]1cccs1
inactive: [19] 95 % of control | [20] 93 % of control

CSc1ccccc1N=NN(C)C
inactive: [9] 101 % of control | [11] 97 % of control and 105 % of control | [13] 95 % of control and 100 % of control | dose: 800.0 mg/kg/injection, schedule: Q01DX009 (ip), vehicle: Klucel (hydroxypropylcellulose) (HPC) 121 % of control

CC(CO)CCCC(C)C1C(O)CC2C3CCC4CC(O)CCC4(C)C3CCC21C (stereo unspecified)
inactive: dose: 100.0 mg/kg/injection, schedule: Q01DX001 (ip), vehicle: Klucel (hydroxypropylcellulose) (HPC) 88 % of control | dose: 200.0 mg/kg/injection, schedule: Q01DX001 (ip), vehicle: Klucel (hydroxypropylcellulose) (HPC) 88 % of control | dose: 400.0 mg/kg/injection, schedule: Q01DX001 (ip), vehicle: Klucel (hydroxypropylcellulose) (HPC) 91 % of control
